According to patent US9060943B2, “Compositions comprising trans-tert-butyl cyclohexanol as skin irritation-reducing agent” (SYMRISE AG, priority 2009, dated 2015):

Legend:
recombinant human TRPV1 = target: T1, recombinant human TRPV1 (Homo sapiens, UniProt Q8NER1); assay: Calcium assay (Fluo-4) for TRPV1 antagonism in HEK293 cells in the presence of capsaicin; format: cell-based; details: for TRPV1 antagonism (result in words), pre-incubation mode: isomer applied 10 min before addition of capsaicin; for TRPV1 antagonism (result in words): parallel application with capsaicin as agonist
T1 construct: expressed in transfected cells
T1 sequence (Q8NER1 whole entry): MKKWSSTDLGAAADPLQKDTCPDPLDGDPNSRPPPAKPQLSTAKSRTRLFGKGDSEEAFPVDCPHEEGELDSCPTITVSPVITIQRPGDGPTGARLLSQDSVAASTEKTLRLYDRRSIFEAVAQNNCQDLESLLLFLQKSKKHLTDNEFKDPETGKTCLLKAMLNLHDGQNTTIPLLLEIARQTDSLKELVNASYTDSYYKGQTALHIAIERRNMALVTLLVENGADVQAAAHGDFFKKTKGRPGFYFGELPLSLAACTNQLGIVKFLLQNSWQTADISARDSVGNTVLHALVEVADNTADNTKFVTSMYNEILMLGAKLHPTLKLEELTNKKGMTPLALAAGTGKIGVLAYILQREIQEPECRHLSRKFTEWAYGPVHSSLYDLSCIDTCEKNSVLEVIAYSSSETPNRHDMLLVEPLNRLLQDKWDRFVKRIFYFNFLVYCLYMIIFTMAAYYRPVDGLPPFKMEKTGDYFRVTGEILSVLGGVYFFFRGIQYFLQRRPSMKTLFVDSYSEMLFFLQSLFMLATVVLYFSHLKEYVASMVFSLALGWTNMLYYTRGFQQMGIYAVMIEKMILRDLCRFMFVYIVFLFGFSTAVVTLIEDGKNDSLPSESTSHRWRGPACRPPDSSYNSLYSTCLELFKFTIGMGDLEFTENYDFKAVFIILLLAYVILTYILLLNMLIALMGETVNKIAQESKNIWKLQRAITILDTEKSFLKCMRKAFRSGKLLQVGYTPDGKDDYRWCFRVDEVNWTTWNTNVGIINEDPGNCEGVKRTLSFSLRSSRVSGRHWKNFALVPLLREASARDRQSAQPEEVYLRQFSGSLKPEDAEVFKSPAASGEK
Method: Three samples of cis- and/or trans-4-tert-butyl cyclohexanol were assessed: 1) 99% trans-isomer, 2) an isomeric mixture enriched in the cis-isomer (59% cis, 41% trans) and 3) 99% cis-isomer.
Calciumassay based on fluorescent dye Fluo-4-AM
Negative Control: KH-buffer (solvent)
Positive Control: lonomycin (generell calcium induction)
Positive Control Capsaicin (natural agonist of TRPV1)
One day prior to performing the assay, HEK293 cells stably overexpressing recombinant human TRPV1 were plated onto black-walled assay plates, at a density of 45,000 cells per well. Using the FLEX Station system the change of the cellular calcium concentration (calcium influx) induced by TRPV1 activation was monitored using the calcium sensitive fluorescent dye fluo-4 (494 nm/516 nm (exitation/emission)). The pharmacological TRPV1 antagonist Ruthenium Red (1 μM) was used as positive control [J. Biol. Chem. 2004, 279 (34): 35741-8]. The dye-loaded stable cells in plates were placed into the fluorescence microtiter plate reader to monitor fluorescence (excitation 488 nm, emission 520 nm) change after the addition of 50 μl assay buffer (118 mM NaCl; 4.7 mM KCl; 1.2 mM MgSO4; 1.2 mM KH2PO4; 4.2 mM NaHCO3; 1.3 mM CaCl2; 10 mM HEPES (N-(2-hydroxyethyl)-piperazine-N′-2-ethanesulfonic acid) (pH: 7.4)) supplemented with an antagonist. Calcium mobilization was quantified as the change of peak fluorescence (ΔF) over the baseline level (F). The analysis was done with the software of the microtiter plate reader (FLEX Station). Potential TRPV1 antagonists were tested at an effective range of 0.5-50 μM. The test compounds were either applied in parallel to 30 nM capsaicin or 10 min prior to the agonist. TRPV1 antagonists were tested for their antagonistic activity in the presence of 30 nM capsaicin, which is the EC80 effective capsaicin concentration leading to 80% of the maximum capsaicin dependent TRPV1 activation.
Antagonistic efficacy of the isomers of 4-tert-butyl cyclohexanol on transient receptor potential ion channel 1 in cell based fluorescent analysis.
The three samples were tested for TRPV1 antagonism at parallel application with capsaicin as agonist.
TRPV1 antagonist in vitro at incubation prior to capsaicin: cis-4-tert-butyl cyclohexanol and trans-4-tert-butyl cyclohexanol were applied to HEK293 cells 10 min before capsaicin treatment.
We therefore additionally tested the pure cis- and trans-isomers of 4-tert-butyl cyclohexanol respectively in a pre-incubation mode with application of the respective isomer 10 min before addition of capsaicin.

[1] = system: volunteers who were sensitive to capsaicin; assay: Clinical study: stinging and burning at the nasolabial fold, O/W-emulsion with capsaicin with or without active; format: in vivo, human; details: O/W-emulsion with 31.6 ppm capsaicin and 1 wt. % active on nasolabial fold; evaluated 3 minutes later; 20 volunteers
Method: A study was performed with 20 volunteers who were sensitive to capsaicin. […] On day 1 sample c2 was assessed versus control. On day 2 sample c1 was assessed versus control. The stinging and burning effects were evaluted 3 minutes later on the same scale as in Example 1.2.

[2] = system: volunteers who were sensitive to capsaicin; assay: In vivo testing: capsaicin-induced stinging on the cheek, O/W-emulsion versus placebo; design: species or system human; details: O/W-emulsion with 1 wt. % applied 60 s after 31.6 ppm capsaicin on cheek; evaluated 5 minutes later; 9 volunteers
Method: A study was performed with 9 volunteers who were sensitive to capsaicin. […] After 60 seconds all participants sensed a pronounced stinging effect. Then, an O/W-emulsion with 1 wt. % racemic trans-4-tert-butyl cyclohexanol (purity >99 wt. %) was applied on one cheek and the placebo O/W-emulsion on the other cheek (blinded samples).

Row | Compound | EC80 effective capsaicin concentration (80% of maximum capsaicin dependent TRPV1 activation) (recombinant human TRPV1; agonist, HEK293 cells overexpressing human TRPV1) [µM] | TRPV1 antagonism (result in words), pre-incubation mode (recombinant human TRPV1) | TRPV1 antagonism (result in words) (recombinant human TRPV1) | average rating of inhibition/reduction of stinging and burning on scale 0 to 4 [1] | average rating of reduction of stinging effect on scale 0 (no effect) to 4 (completely suppressed) [2] | IC50 (recombinant human TRPV1; parallel application with 30 nM capsaicin as agonist, HEK293 cells overexpressing human TRPV1) [µM]
1 | COc1cc(CNC(=O)CCCC/C=C/C(C)C)ccc1O [capsaicin, reference compound] | 0.03 | – | – | – | – | –
2 | CC(C)(C)[C@H]1CC[C@@H](O)CC1 [cis-4-tert-butyl cyclohexanol, reference compound] | – | not active | inactive | – | – | –
3 | CC(C)(C)[C@H]1CC[C@H](O)CC1 [trans-4-tert-butyl cyclohexanol] | – | strong activity | significantly more active | 2.95 | 3.10 | 34.1
